Molecular target: S. aureus GyrB ATPase (Staphylococcus aureus, UniProt P0A0K8)
Assay: S. aureus (SAU) GyrB ATPase inhibition, malachite green phosphate detection (E. coli GyrA + S. aureus GyrB)
Format: biochemical
Settings: compound concentration of 1.0 μM unless otherwise noted; average value where assay was carried out more than once; read-out: S. aureus (SAU) GyrB ATPase % Inhibition
Experimental: Compounds were tested for inhibition of GyrB ATPase activity using an ammonium molybdate/malachite green-based phosphate detection assay (Lanzetta, P. A., L. J. Alvarez, P. S. Reinach, and O. A. Candia, 1979, 100: 95-97). Assays were performed in multiwell plates in 100 μl reactions containing: 50 mM Hepes buffer pH 7.5, 75 mM ammonium acetate, 8.0 mM magnesium chloride, 1.0 mM ethylenediaminetetraacetic acid, 5% glycerol, 2 mM 1,4-Dithio-DL-threitol, 400 nM bovine serum albumin, 5 μg/ml sheared salmon sperm DNA, 1.25 nM E. coli GyrA, 1.25 nM S. aureus GyrB, 500 μM ATP, and compound in dimethylsulfoxide. Reactions were quenched with 150 μl of ammonium molybdate/malachite green detection reagent containing 1.2 mM malachite green hydrochloride, 8.5 mM ammonium molybdate tetrahydrate, and 1 M hydrochloric acid. Plates were read in an absorbance plate reader at 650 nm and percent inhibition values were calculated using dimethylsulfoxide (2%)-containing reactions as 0% inhibition and novobiocin-containing (2 μM) reactions as 100% inhibition controls. Compound potency was based on IC50 measurements determined from reactions performed in the presence of 10 different compound concentrations.

S. aureus GyrB ATPase, sequence (P0A0K8 whole entry): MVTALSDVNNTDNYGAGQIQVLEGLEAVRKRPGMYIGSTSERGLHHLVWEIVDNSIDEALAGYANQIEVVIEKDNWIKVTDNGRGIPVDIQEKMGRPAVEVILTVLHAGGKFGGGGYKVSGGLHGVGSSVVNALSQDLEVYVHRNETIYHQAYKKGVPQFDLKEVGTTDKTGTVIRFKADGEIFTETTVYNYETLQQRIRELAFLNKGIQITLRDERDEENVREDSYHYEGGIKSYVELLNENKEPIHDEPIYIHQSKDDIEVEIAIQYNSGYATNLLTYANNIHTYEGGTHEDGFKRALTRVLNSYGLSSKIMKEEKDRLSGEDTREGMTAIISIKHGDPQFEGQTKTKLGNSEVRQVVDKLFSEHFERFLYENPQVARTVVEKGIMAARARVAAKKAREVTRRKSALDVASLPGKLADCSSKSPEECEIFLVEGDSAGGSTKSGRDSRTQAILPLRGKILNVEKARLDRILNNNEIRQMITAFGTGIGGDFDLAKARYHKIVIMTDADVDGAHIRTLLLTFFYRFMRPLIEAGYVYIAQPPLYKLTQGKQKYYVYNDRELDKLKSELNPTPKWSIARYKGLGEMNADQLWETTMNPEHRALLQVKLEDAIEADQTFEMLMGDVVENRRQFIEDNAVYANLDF
S. aureus GyrB ATPase, sequence (P0AES4 whole entry, further chain): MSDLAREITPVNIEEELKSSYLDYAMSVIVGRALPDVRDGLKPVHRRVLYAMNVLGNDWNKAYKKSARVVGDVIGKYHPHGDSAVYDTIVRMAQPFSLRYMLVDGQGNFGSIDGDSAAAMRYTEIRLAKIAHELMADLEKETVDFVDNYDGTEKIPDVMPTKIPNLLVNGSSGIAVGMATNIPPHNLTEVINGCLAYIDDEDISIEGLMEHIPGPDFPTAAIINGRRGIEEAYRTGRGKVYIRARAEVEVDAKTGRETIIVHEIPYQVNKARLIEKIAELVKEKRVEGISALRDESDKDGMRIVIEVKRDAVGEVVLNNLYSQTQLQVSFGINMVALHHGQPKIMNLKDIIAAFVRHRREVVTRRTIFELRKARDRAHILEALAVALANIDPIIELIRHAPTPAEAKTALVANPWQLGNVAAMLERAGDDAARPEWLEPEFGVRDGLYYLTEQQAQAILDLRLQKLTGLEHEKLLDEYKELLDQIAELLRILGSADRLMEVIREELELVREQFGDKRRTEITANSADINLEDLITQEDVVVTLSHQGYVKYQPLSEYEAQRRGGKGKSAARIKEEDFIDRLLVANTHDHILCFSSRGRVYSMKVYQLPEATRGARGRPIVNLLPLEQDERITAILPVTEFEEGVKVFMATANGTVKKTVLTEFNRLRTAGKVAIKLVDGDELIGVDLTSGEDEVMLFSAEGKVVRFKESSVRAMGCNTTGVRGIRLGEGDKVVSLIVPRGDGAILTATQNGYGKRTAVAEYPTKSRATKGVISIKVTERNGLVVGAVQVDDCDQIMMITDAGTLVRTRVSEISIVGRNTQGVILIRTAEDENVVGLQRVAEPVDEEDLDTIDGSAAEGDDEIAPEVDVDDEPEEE

With `CCN(CC)C(=O)Nc1cc(-c2nc(C(F)(F)F)cs2)c(-c2cncc(-c3n[nH]c(=O)o3)c2)cn1` [Example 47, 1,1-diethyl-3-(5′-(5-oxo-4,5-dihydro-1,3,4-oxadiazol-2-yl)-4-(4-(trifluoromethyl)thiazol-2-yl)-3,3′-bipyridin-6-yl)urea] the inhibition at 1 µM was 72%.
`CCNC(=O)Nc1cc(-c2nnc(-c3ccccc3)o2)c(-c2ncc(-c3nnc(C)o3)s2)cn1` [Example 230] was tested, and the inhibition at 1 µM was 91%.
With `CCNC(=O)Nc1cc(-c2sc(C)nc2C)c(-c2cncc(-c3n[nH]c(=O)o3)c2)cn1` [Example 147] the inhibition at 1 µM was 95%.
In the case of `CCNC(=O)Nc1cc(-c2nc(C(F)(F)F)cs2)c(-c2cc(-c3n[nH]c(=O)o3)cnc2OCCCC2CCCC2)cn1` [Example 220], the inhibition at 1 µM is reported as 91%.
Compound `CCNC(=O)Nc1cc(-c2nc(C(F)(F)F)cs2)c(-c2cccc(-n3cccn3)n2)cn1` [Example 29] has an inhibition at 1 µM of 114%.
`CCNC(=O)Nc1cc(-c2nc(C(F)(F)F)c(C(=O)NCCN3CCOCC3)s2)c(-c2cncc(-c3nnc(C)o3)c2)cn1` [Example 62, 2-(6-(3-ethylureido)-5′-(5-methyl-1,3,4-oxadiazol-2-yl)-3,3′-bipyridin-4-yl)-N-(2-morpholinoethyl)-4-(trifluoromethyl)thiazole-5-carboxamide] showed an inhibition at 1 µM of 86%.
`CCNC(=O)Nc1cc(-c2nc(C(F)(F)F)cs2)c(-c2cncc(-c3nnc(NCCN(C)C)o3)c2)cn1` [Example 157] gave an inhibition at 1 µM of 96%.
`CCNC(=O)Nc1cc(-c2nc(C(F)(F)F)cs2)c(-c2cc(-c3nnc(C)o3)cnc2OC2CC(C)(C)N(C)C(C)(C)C2)cn1` [Example 117, 1-Ethyl-3-(5′-(5-methyl-1,3,4-oxadiazol-2-yl)-2′-(1,2,2,6,6-pentamethylpiperidin-4-yloxy)-4-(4-(trifluoromethyl)thiazol-2-yl)-3,3′-bipyridin-6-yl)urea] showed an inhibition at 1 µM of 105%.
`CCNC(=O)Nc1cc(-c2nc(C(F)(F)F)cs2)c(-c2cncc(-c3nnc(CC(C)=O)o3)c2)cn1` [Example 265, 1-ethyl-3-(5′-(5-(2-oxopropyl)-1,3,4-oxadiazol-2-yl)-4-(4-(trifluoromethyl)thiazol-2-yl)-3,3′-bipyridin-6-yl)urea] was tested, and the inhibition at 1 µM was 101%.
Work on `CCNC(=O)Nc1cc(-c2nc(C(F)(F)F)c(CNC3CCCC3)s2)c(-c2cncc(-c3nnc(C)o3)c2)cn1` [Example 57, 1-(4-(5-((cyclopentylamino)methyl)-4-(trifluoromethyl)thiazol-2-yl)-5′-(5-methyl-1,3,4-oxadiazol-2-yl)-3,3′-bipyridin-6-yl)-3-ethylurea] yielded an inhibition at 1 µM of 96%.
`CCNC(=O)Nc1cc(-c2nc(-c3cccc(OC)n3)cs2)c(-c2cncc(-c3nnc(C)o3)c2)cn1` [Example 250, 1-ethyl-3-(4-(4-(6-methoxypyridin-2-yl)thiazol-2-yl)-5′-(5-methyl-1,3,4-oxadiazol-2-yl)-3,3′-bipyridin-6-yl)urea] showed an inhibition at 1 µM of 101%.
`CCNC(=O)Nc1cc(-c2nc(C(F)(F)F)cs2)c(-c2cncc(-c3nnc(N4CCN(C(C)=O)CC4)o3)c2)cn1` [Example 156] showed an inhibition at 1 µM of 95%.
With `CCNC(=O)Nc1cc(-c2nc(C(F)(F)F)cs2)c(-c2cncc(-c3nnc(C4(O)CC4)o3)c2)cn1` [Example 273, 1-ethyl-3-(5′-(5-(1-hydroxycyclopropyl)-1,3,4-oxadiazol-2-yl)-4-(4-(trifluoromethyl)thiazol-2-yl)-3,3′-bipyridin-6-yl)urea] the inhibition at 1 µM was 98%.
`CCNC(=O)Nc1cc(-c2nc(C(F)(F)F)cs2)c(-c2cc(-c3n[nH]c(=O)o3)cnc2OC2CCNCC2)cn1` [Example 109, 1-Ethyl-3-{5′-(5-oxo-4,5-dihydro-1,3,4-oxadiazol-2-yl)-2′-(piperidin-4-yloxy)-4-[4-(trifluoromethyl)-1,3-thiazol-2-yl]-3,3′-bipyridin-6-yl}urea] was tested, and the inhibition at 1 µM was 98%.
Work on `CCNC(=O)Nc1cc(-c2nc(C(F)(F)F)cs2)c(-c2cc(OC(C)C)nc(-c3n[nH]c(=O)o3)c2)cn1` [Example 79, 1-ethyl-3-(2′-isopropoxy-6′-(5-oxo-4,5-dihydro-1,3,4-oxadiazol-2-yl)-4-(4-(trifluoromethyl)thiazol-2-yl)-3,4′-bipyridin-6-yl)urea] yielded an inhibition at 1 µM of 95%.
For `CCNC(=O)Nc1cc(-c2nnc(-c3ccccc3)o2)c(-c2cnc(OC)c(-c3n[nH]c(=O)o3)c2)cn1` [Example 197], the inhibition at 1 µM was 106%.
`CCNC(=O)Nc1cc(-c2nc(C(F)(F)F)cs2)c(-c2cnc(OC)nc2)cn1` [Example 125] gave an inhibition at 1 µM of 103%.
Compound `CCNC(=O)Nc1cc(-c2nc(C(F)(F)F)cs2)c(-c2cncc(S(N)(=O)=O)c2)cn1` [Example 23, 6′-(3-Ethylureido)-4′-(4-(trifluoromethyl)thiazol-2-yl)-3,3′-bipyridine-5-sulfonamide] has an inhibition at 1 µM of 110%.
`CCNC(=O)Nc1cc(-c2nc(C(F)(F)F)c(C(=O)NCCN3CCOCC3)s2)c(-c2cncc(-c3n[nH]c(=O)o3)c2)cn1` [Example 61, 2-(6-(3-ethylureido)-5′-(5-oxo-4,5-dihydro-1,3,4-oxadiazol-2-yl)-3,3′-bipyridin-4-yl)-N-(2-morpholinoethyl)-4-(trifluoromethyl)thiazole-5-carboxamide] showed an inhibition at 1 µM of 95%.
`CCNC(=O)Nc1cc(-c2nc(C(F)(F)F)c(C(=O)NC3CCCCC3)s2)c(-c2cncc(-c3n[nH]c(=O)o3)c2)cn1` [Example 69, N-cyclohexyl-2-(6-(3-ethylureido)-5′-(5-oxo-4,5-dihydro-1,3,4-oxadiazol-2-yl)-3,3′-bipyridin-4-yl)-4-(trifluoromethyl)thiazole-5-carboxamide] was tested, and the inhibition at 1 µM was 91%.
Compound `CCNC(=O)Nc1cc(-c2nc(C(F)(F)F)cs2)c(-c2cncc(-c3nnc(OCC)o3)c2)cn1` [Example 271, 1-(5′-(5-ethoxy-1,3,4-oxadiazol-2-yl)-4-(4-(trifluoromethyl)thiazol-2-yl)-3,3′-bipyridin-6-yl)-3-ethylurea] has an inhibition at 1 µM of 100%.
`CCNC(=O)Nc1cc(-c2nc(C(F)(F)F)cs2)c(-c2cncc(-c3nnc(C(C)(C)O)o3)c2)cn1` [Example 263, 1-ethyl-3-(5′-(5-(2-hydroxypropan-2-yl)-1,3,4-oxadiazol-2-yl)-4-(4-(trifluoromethyl)thiazol-2-yl)-3,3′-bipyridin-6-yl)urea] was tested, and the inhibition at 1 µM was 100%.
For `CCNC(=O)Nc1cc(-c2nc(C(F)(F)F)cs2)c(-c2cncc(-c3nnn[nH]3)c2)cn1` [Example 3, 1-(5′-(2H-tetrazol-5-yl)-4-(4-(trifluoromethyl)thiazol-2-yl)-3,3′-bipyridin-6-yl)-3-ethylurea], the inhibition at 1 µM was 88%.
`CCNC(=O)Nc1cc(-c2nc(C(F)(F)F)cs2)c(-c2ccnc(-c3n[nH]c(=O)o3)c2)cn1` [Example 33, 1-ethyl-3-(2′-(5-oxo-4,5-dihydro-1,3,4-oxadiazol-2-yl)-4-(4-(trifluoromethyl)thiazol-2-yl)-3,4′-bipyridin-6-yl)urea] showed an inhibition at 1 µM of 117%.
For `CCNC(=O)Nc1cc(-c2nc(C(F)(F)F)cs2)c(-c2cc(-c3n[nH]c(=O)o3)cnc2OCCN(CC)CC)cn1` [Example 119], the inhibition at 1 µM was 96%.
`CCCNC(=O)Nc1cc(-c2nc(C(F)(F)F)cs2)c(-c2cc(-c3nnc(C)o3)cnc2OC2CCOCC2)cn1` [Example 169, 1-(5′-(5-Methyl-1,3,4-oxadiazol-2-yl)-2′-(tetrahydro-2H-pyran-4-yloxy)-4-(4-(trifluoromethyl)thiazol-2-yl)-3,3′-bipyridin-6-yl)-3-propylurea] was tested, and the inhibition at 1 µM was 96%.
`CCNC(=O)Nc1cc(-c2nc(-c3cccc(OC)n3)cs2)c(-c2cncc(S(N)(=O)=O)c2)cn1` [Example 247, 6′-(3-ethylureido)-4′-(4-(6-methoxypyridin-2-yl)thiazol-2-yl)-3,3′-bipyridine-5-sulfonamide] was tested, and the inhibition at 1 µM was 100%.
In the case of `CCNC(=O)Nc1cc(-c2nc(-c3ccccc3)cs2)c(-c2cc(OCC)nc(-c3nnc(C)o3)c2)cn1` [Example 78, 1-(2′-ethoxy-6′-(5-methyl-1,3,4-oxadiazol-2-yl)-4-(4-phenylthiazol-2-yl)-3,4′-bipyridin-6-yl)-3-ethylurea], the inhibition at 1 µM is reported as 99%.
`CCCNC(=O)Nc1cc(-c2nc(C(F)(F)F)cs2)c(-c2cncc(-c3n[nH]c(=O)o3)c2)cn1` [Example 44, 1-(5′-(5-oxo-4,5-dihydro-1,3,4-oxadiazol-2-yl)-4-(4-(trifluoromethyl)thiazol-2-yl)-3,3′-bipyridin-6-yl)-3-propylurea] gave an inhibition at 1 µM of 96%.
`CCNC(=O)Nc1cc(-c2nc(-c3cccnc3OCCOC)cs2)c(-c2cncc(-c3n[nH]c(=O)o3)c2)cn1` [Example 208] gave an inhibition at 1 µM of 100%.
`CCNC(=O)Nc1cc(-c2nc(C(F)(F)F)cs2)c(-c2cncc(-c3nnco3)c2)cn1` [Example 272, 1-(5′-(1,3,4-oxadiazol-2-yl)-4-(4-(trifluoromethyl)thiazol-2-yl)-3,3′-bipyridin-6-yl)-3-ethylurea] showed an inhibition at 1 µM of 90%.
`CCNC(=O)Nc1cc(-c2nc(C3CCCC3)cs2)c(-c2cncc(-c3n[nH]c(=O)o3)c2)cn1` [Example 209] gave an inhibition at 1 µM of 95%.
In the case of `CCNC(=O)Nc1cc(-c2nc(-c3cccc(OC)n3)cs2)c(-c2nc(-c3ncnn3C)c(-c3nnc(C)o3)s2)cn1` [Example 252, 1-ethyl-3-(4-(4-(6-methoxypyridin-2-yl)thiazol-2-yl)-5-(5-(5-methyl-1,3,4-oxadiazol-2-yl)-4-(1-methyl-1H-1,2,4-triazol-5-yl)thiazol-2-yl)pyridin-2-yl)urea], the inhibition at 1 µM is reported as 99%.

Reference: patent publication US20120101100A1 (priority 2008, published 2012)
